The values below come from US20260355196A1, “INHIBITORS AND DEGRADERS OF PIP4K PROTEIN” (Larkspur Biosciences, Inc., priority 2023, published 2026).

The first test addresses T1, PIP4K2C (Homo sapiens, UniProt Q8TBX8).
T1 sequence (Q8TBX8 1-421): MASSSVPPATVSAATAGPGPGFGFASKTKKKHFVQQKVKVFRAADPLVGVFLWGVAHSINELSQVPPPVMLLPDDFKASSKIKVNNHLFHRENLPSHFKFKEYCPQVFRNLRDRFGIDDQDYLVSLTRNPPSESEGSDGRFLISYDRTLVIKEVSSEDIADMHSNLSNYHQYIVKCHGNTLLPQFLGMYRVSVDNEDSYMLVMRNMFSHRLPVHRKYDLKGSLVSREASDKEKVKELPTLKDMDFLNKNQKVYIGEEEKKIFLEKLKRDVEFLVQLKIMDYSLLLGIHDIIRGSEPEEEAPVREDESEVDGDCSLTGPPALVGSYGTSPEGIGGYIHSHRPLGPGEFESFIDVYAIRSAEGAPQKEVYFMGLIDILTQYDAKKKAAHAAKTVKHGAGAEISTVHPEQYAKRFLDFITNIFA
Put plainly: HiBiT PIP4K2C degradation assay in MOLT-4 cells (endogenous PIP4K2C C-terminally tagged with HiBiT). Details: untagged in primary human PBMCs and monocyte-derived dendritic cells. Type of test: cell-based. The note with it: 6 hours of incubation time, rather than 24 hours; MOLT-4, top concentration 10 micromolar; read-out: HiBIT-degradation MOLT4 PIP4k2C DC50 (6 hours, marked *). The method, boiled down: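 MOLT-4 cells with endogenous PIP4K2C C-terminally HiBiT-tagged by CRISPR were treated with a 10-point, 3-fold dilution series from 10 micromolar, in duplicate, for 24 h or 6 h at 37 C. Remaining tagged protein read by HiBiT lytic luminescence; DC50 from Hill-equation fit.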
Take `Cc1ccn(-c2cccc(-c3nc(N[C@H]4CC[C@H](C(=O)N5CCC(CN6CCC(c7ccc(NC8CCC(=O)NC8=O)cc7F)CC6)CC5)CC4)ncc3F)c2)c(=O)c1` (stereo partly drawn) [Compound 473, trans-3-((3-fluoro-4-(1-((1-(4-((5-fluoro-4-(3-(4-methyl-2-oxopyridin-1 (2H)-yl)phenyl)pyrimidin-2-yl)amino)cyclohexane-1-carbonyl)piperidin-4-yl)methyl)piperidin-4-yl)phenyl)amino)piperidine-2,6-dione]: the DC50 was less than 500 nM.

Turning to `Cn1nc(C2CCC(=O)NC2=O)c2ccc(N3CCN([C@H]4CC[C@H](NC(=O)[C@H]5CC[C@H](Nc6ncc(F)c(-c7cccc(-n8ccccc8=O)c7)n6)CC5)CC4)CC3)cc21` (stereo partly drawn) [Compound 383, trans-N-(trans-4-(4-(3-(2,6-dioxopiperidin-3-yl)-1-methyl-1H-indazol-6-yl)piperazin-1-yl)cyclohexyl)-4-((5-fluoro-4-(3-(2-oxopyridin-1(2H)-yl)phenyl)pyrimidin-2-yl)amino)cyclohexane-1-carboxamide], the DC50 was less than 500 nM.

Turning to `O=C1CCC(Nc2ccc(C3CCN(CC4(O)CCN(C(=O)[C@H]5CC[C@H](Nc6ncc(F)c(-c7cccc(-c8ccc[nH]c8=O)c7)n6)CC5)CC4)CC3)c(F)c2)C(=O)N1` (stereo partly drawn) [Compound 581, 3-((3-fluoro-4-(1-((1-(trans-4-((5-fluoro-4-(3-(2-oxo-1,2-dihydropyridin-3-yl)phenyl)pyrimidin-2-yl)amino)cyclohexane-1-carbonyl)-4-hydroxypiperidin-4-yl)methyl)piperidin-4-yl)phenyl)amino)piperidine-2,6-dione], the DC50 is less than 500 nM.

For `O=C1CCC(Nc2ccc(N3CCN([C@H]4CC[C@H](C(=O)N[C@H]5CC[C@H](Nc6ncc(F)c(-c7cccc(C(=O)N8CC[C@H](O)C8)c7)n6)CC5)CC4)CC3)c(F)c2)C(=O)N1` (stereo partly drawn) [Compound 537, trans-4-(4-(4-((2,6-dioxopiperidin-3-yl)amino)-2-fluorophenyl)piperazin-1-yl)-N-(trans-4-((5-fluoro-4-(3-((S)-3-hydroxypyrrolidine-1-carbonyl)phenyl)pyrimidin-2-yl)amino)cyclohexyl)cyclohexane-1-carboxamide], the DC50 was less than 500 nM.

Take `O=C1CCC(Nc2ccc(N3CCC(N4CCC(NC(=O)[C@H]5CC[C@H](Nc6ncc(F)c(-c7cccc(-n8ccccc8=O)c7)n6)CC5)CC4)C(F)(F)C3)c(F)c2)C(=O)N1` (stereo partly drawn) [Compound 431, trans-N-(1′-(4-((2,6-dioxopiperidin-3-yl)amino)-2-fluorophenyl)-3′,3′-difluoro-[1,4′-bipiperidin]-4-yl)-4-((5-fluoro-4-(3-(2-oxopyridin-1(2H)-yl)phenyl)pyrimidin-2-yl)amino)cyclohexane-1-carboxamide]: the DC50 is less than 500 nM.

As to `O=C1CCC(Nc2ccc(N3CCN(CC4CCN(C(=O)[C@H]5CC[C@H](Nc6ncc(F)c(-c7cccc(C(=O)N8CC[C@H](O)C8)c7)n6)CC5)CC4)CC3)c(F)c2)C(=O)N1` (stereo partly drawn) [Compound 483, trans-3-((3-fluoro-4-(4-((1-(4-((5-fluoro-4-(3-((S)-3-hydroxypyrrolidine-1-carbonyl)phenyl)pyrimidin-2-yl)amino)cyclohexane-1-carbonyl)piperidin-4-yl)methyl)piperazin-1-yl)phenyl)amino)piperidine-2,6-dione], the 50% degradation concentration (DC50) is less than 500 nM.

For the compound `O=C1CCC(Nc2ccc(N3CCN(CC4(O)CCN(C(=O)[C@H]5CC[C@H](Nc6ncc(F)c(-c7cccc(N8CCCOC8=O)c7)n6)CC5)CC4)CC3)c(F)c2)C(=O)N1` (stereo partly drawn) [Compound 583, trans-3-((3-fluoro-4-(4-((1-(4-((5-fluoro-4-(3-(2-oxo-1,3-oxazinan-3-yl)phenyl)pyrimidin-2-yl)amino)cyclohexane-1-carbonyl)-4-hydroxypiperidin-4-yl)methyl)piperazin-1-yl)phenyl)amino)piperidine-2,6-dione], the DC50 is less than 500 nM.

Still in this test, the particulars now being: 24 hours incubation, MOLT-4, top concentration 10 micromolar; read-out: HiBIT-degradation MOLT4 PIP4k2C 24 hours DC50.
In the case of `Cn1c(=O)n(C2CCC(=O)NC2=O)c2ccc(C3CCN(CC[C@H]4CC[C@H](C(=O)N5CCC(Nc6ncc(Cl)c(-c7cccc(-c8ccc(F)cc8)c7)n6)CC5)CC4)CC3)cc21` (relative stereo) [Compound 338, trans-3-(5-(1-(2-(4-(4-((5-chloro-4-(4′-fluoro-[1,1′-biphenyl]-3-yl)pyrimidin-2-yl)amino)piperidine-1-carbonyl)cyclohexyl)ethyl)piperidin-4-yl)-3-methyl-2-oxo-2,3-dihydro-1H-benzo[d]imidazol-1-yl)piperidine-2,6-dione], the DC50 was less than 500 nM.

In the case of `O=C1CCC(Nc2ccc(C3CCN(CCN4CCN(C(=O)[C@H]5CCC[C@@H](Nc6ncc(Cl)c(-c7cccc(-c8ccccc8)c7)n6)C5)CC4)CC3)cc2)C(=O)N1` (relative stereo) [Compound 55, cis-3-((4-(1-(2-(4-(3-((4-([1,1′-biphenyl]-3-yl)-5-chloropyrimidin-2-yl)amino)cyclohexane-1-carbonyl)piperazin-1-yl)ethyl)piperidin-4-yl)phenyl)amino)piperidine-2,6-dione], the DC50 lay within 500 to 1000 nM.

With `Cn1c(=O)n(C2CCC(=O)NC2=O)c2ccc(C3CCN(CC4CCN(CC(=O)N5CCC[C@H](Nc6ncc(Cl)c(-c7cccc(-c8ccccc8)c7)n6)C5)CC4)CC3)cc21` (stereo partly drawn) [Compound 73, 3-(5-(1-((1-(2-((S)-3-((4-([1,1′-biphenyl]-3-yl)-5-chloropyrimidin-2-yl)amino)piperidin-1-yl)-2-oxoethyl)piperidin-4-yl)methyl)piperidin-4-yl)-3-methyl-2-oxo-2,3-dihydro-1H-benzo[d]imidazol-1-yl)piperidine-2,6-dione], the DC50 is less than 500 nM.

As for `Cn1c(=O)n(C2CCC(=O)NC2=O)c2ccc(C3CCN(CCC4CCN(C(=O)[C@H]5CCC[C@@H](Nc6ncc(Cl)c(-c7cccc(-c8ccccc8)c7)n6)C5)CC4)CC3)cc21` (relative stereo) [Compound 52, cis-3-(5-(1-(2-(1-(3-((4-([1,1′-biphenyl]-3-yl)-5-chloropyrimidin-2-yl)amino)cyclohexane-1-carbonyl)piperidin-4-yl)ethyl)piperidin-4-yl)-3-methyl-2-oxo-2,3-dihydro-1H-benzo[d]imidazol-1-yl)piperidine-2,6-dione], the DC50 was less than 500 nM.

Turning to `Cn1c(=O)n(C2CCC(=O)NC2=O)c2ccc(C3CCN(CCC4CCN(C(=O)[C@H]5CCC[C@@H](Nc6ncc(F)c(-c7cccc(-n8ccccc8=O)c7)n6)C5)CC4)CC3)cc21` (relative stereo) [Compound 291, cis-3-(5-(1-(2-(1-(3-((5-fluoro-4-(3-(2-oxopyridin-1(2H)-yl)phenyl)pyrimidin-2-yl)amino)cyclohexane-1-carbonyl)piperidin-4-yl)ethyl)piperidin-4-yl)-3-methyl-2-oxo-2,3-dihydro-1H-benzo[d]imidazol-1-yl)piperidine-2,6-dione], the DC50 was less than 500 nM.

As for `O=C1CCC(N2Cc3cc(C4CCN(C5CCCN(CC(=O)N6CCC(Nc7ncc(Cl)c(-c8cccc(-c9ccc(F)cc9)c8)n7)CC6)C5)CC4)ccc3C2=O)C(=O)N1` (stereo not shown) [Compound 705, 3-(5-(1′-(2-(4-((5-chloro-4-(4′-fluoro-[1,1′-biphenyl]-3-yl)pyrimidin-2-yl)amino)piperidin-1-yl)-2-oxoethyl)-[1,3′-bipiperidin]-4-yl)-1-oxoisoindolin-2-yl)piperidine-2,6-dione], the DC50 was less than 500 nM.

As to `O=C1CCC(N2Cc3cc(C4CCN(CCN5CCC(C(=O)N6CCC(Nc7ncc(Cl)c(-c8cccc(-c9ccccc9)c8)n7)CC6)CC5)CC4)ccc3C2=O)C(=O)N1` (stereo not shown) [Compound 88, 3-(5-(1-(2-(4-(4-((4-([1,1′-biphenyl]-3-yl)-5-chloropyrimidin-2-yl)amino)piperidine-1-carbonyl)piperidin-1-yl)ethyl)piperidin-4-yl)-1-oxoisoindolin-2-yl)piperidine-2,6-dione], the 50% degradation concentration (DC50) was less than 500 nM.

Still in this test, the particulars now being: read-out: HiBIT-degradation MOLT4 PIP4k2C DC50 (6 hours, marked *); 6 hours of incubation time, rather than 24 hours; MOLT-4, top concentration 10 micromolar.
Turning to `O=C1CCC(Nc2ccc(N3CCC(N4CC5(CN(C(=O)O[C@H]6CC[C@H](Nc7ncc(F)c(-c8cccc(-n9ccccc9=O)c8)n7)CC6)C5)C4)CC3)c(F)c2)C(=O)N1` (stereo partly drawn) [Compound 652, (trans)-4-((5-fluoro-4-(3-(2-oxopyridin-1 (2H)-yl)phenyl)pyrimidin-2-yl)amino)cyclohexyl 6-(1-(4-((2,6-dioxopiperidin-3-yl)amino)-2-fluorophenyl)piperidin-4-yl)-2,6-diazaspiro[3.3]heptane-2-carboxylate], the DC50 was less than 500 nM.

As to `O=C1CCC(Nc2ccc(C3CCN([C@H]4CC[C@H](C(=O)N[C@H]5CC[C@H](Nc6ncc(F)c(-c7cccc(-n8ccccc8=O)c7)n6)CC5)CC4)CC3)c(F)c2)C(=O)N1` (stereo partly drawn) [Compound 345, trans-4-(4-(4-((2,6-dioxopiperidin-3-yl)amino)-2-fluorophenyl)piperidin-1-yl)-N-(trans-4-((5-fluoro-4-(3-(2-oxopyridin-1(2H)-yl)phenyl)pyrimidin-2-yl)amino)cyclohexyl)cyclohexane-1-carboxamide], the DC50 was less than 500 nM.

Usually DC50 stands for the concentration giving 50% degradation.
